The values below come from patent US10617695B2, “Ophthalmic compositions containing alcaftadine” (Vistakon Pharmaceuticals, LLC, priority 2006, dated 2020).

The target of series [1] is T1, human histamine H4 receptor (Homo sapiens, UniProt Q9H3N8).
T1 construct: express a reporter gene construct and the human H4 receptor full-coding region; expressed in transfected cells; host or cells: SK-N-MC cells with a CRE-beta-galactosidase reporter
Nature of the series: [3H]histamine competition binding to membranes of SK-N-MC cells transfected with human H4 receptor.

Series [2] is described as follows: Chemical stability of alcaftadine solution in non-sterilized or gamma irradiated LDPE bottles and glass vials (HPLC). It is filed as physicochemical. An excerpt: The existence of the N-oxide structures as the primary oxidative degradation peak was confirmed as having the same HPLC relative retention time as a synthetically produced N-oxide structures and also confirmed using mass spectroscopy.
To investigate the effects of the gamma irradiation process used to sterilize the LDPE bottles, the chemical stability of alcaftadine was studied using different lots of bottles, either gamma irradiated or non-sterilized.
The following materials were used in this study.
2.5 mg/ml alfactadine solution
Non-sterilized 5 ml LDPE bottles (DUPONT 20-6064) from Bunder Glas GmbH (Germany)
Non-sterilized 5 ml LDPE bottles (DUPONT 20-6064) from Rexam (France)
Sterilized (gamma irradiated at 25 kGy) LDPE bottles (DUPONT 20-6064) from Bunder Glas GmbH
Scintillation vials—20 ml clear glass with Teflon coated cap Millex GV syringe filter unit
Chemical stability results for alcaftadine solution stored in either non-sterilized bottles (Rexam or Bunder Glas) or gamma-irradiated bottles (Bunder Glas) are summarized in Table 2. All samples were assayed by HPLC after 6 and 14 days of storage at 50° C. Light exposure was not controlled during storage. The solution was stored in either Rexam bottles (without sterilization), Bunder Glas bottles (sterilized with y Irradiation or without sterilization) and in glass vials.

In series [3] the test system is SWR/J mice sensitized with short ragweed allergen. As to the kind of experiment: Topical alcaftadine in murine model of active anaphylaxis (allergic conjunctivitis, short ragweed challenge). The conditions noted are these: alcaftadine 0.0625% ophthalmic solution, 15 minutes after allergen challenge. Format: in vivo, mouse. The procedure:
Male SWR/J mice (The Jackson Laboratory, Bar Harbor, Me.), aged 5-7 weeks and weighing between 12.55 and 17.73 grams, were sensitized with a 100 μl dose of a suspension of 50 μg short ragweed allergen (Greer Labs, Inc., Lenoir, N.C.) and 1 mg of aluminum hydroxide (Fisher Scientific, Pittsburgh, Pa.) by intraperitoneal injection at two weeks and prior to treatment and challenge. […] The mice were then dosed topically in the eye with an alcaftadine 0.0625% ophthalmic solution, positive control (ophthalmic solution comprising combination of ketotifen 0.05% and pheniramine 0.5%), or placebo prior to an ocular challenge with 1.5 mg short ragweed allergen in phosphate buffered saline. Fifteen (15) minutes after allergen challenge, mice were evaluated for clinical signs of allergic conjunctivitis by scoring for conjunctival redness, chemosis, tearing, and lid edema. Severity of clinical signs was scored by a trained technician using a standardized 0-2 scale.

The target of series [4] is T1, human histamine H4 receptor. Nature of the series: H4 receptor antagonist assay: shift of histamine EC50, Schild plot, in transfected SK-N-MC cells. It is filed as cell-based. On the procedure: Alcaftadine and 6,11-dihydro-11-(1-methyl-4-piperdinylidene)-5H-imidazo[2,1-b][3]benazepine-3-carboxylic acid (CAS #147083-93-0) were prepared at 10 mM in 100% dimethylsulfoxide (DMSO) for the binding assays and at 10 mM in Na/K phosphate buffer, pH 7.0, for the cellular assays. Cell pellets from SK-N-MC cells transfected with human H4 receptor were homogenized in 20 mM Tris-HCl/0.5 mM ethylendediaminetetraacetic acid (EDTA) pH 8.0 (TE buffer). Supernatants collected after centrifugation at 800 g were recentrifuged at 30,000 g for 30 min. Pellets were re-homogenized in TE buffer. […] Non-specific binding was defined with 100 μM cold histamine. […] Seven concentrations of compound were tested spanning 10^−11 to 10^−5 M with each concentration being run in triplicate. […] This assay was run twice and the results are reported as the average of the two runs. SK-N-MC cell lines were created that express a reporter gene construct and the human H4 receptor full-coding region. The reporter gene was β-galactosidase under the control of cyclic adenosine monophosphate (cAMP) responsive elements. Cells were plated in 96-well plates the night before the assay. Antagonists were added 10 min prior to the addition of histamine, which was added directly to the cell medium. Forskolin (5 μM final concentration) was added 10 min after the addition of histamine. Cells were returned to the incubator for 6 h at 37° C. The medium was then aspirated and cells were lysed with 25 μL of 0.1× assay buffer (10 mM sodium phosphate, pH 8, 0.2 mM MgSO4, 0.01 mM MnCl2) and incubated at room temperature for 10 min. […] Color was quantitated on a microplate reader at absorbance 570 nm. […]
To test whether alcaftadine or 6,11-dihydro-11-(1-methyl-4-piperdinylidene)-5H-imidazo[2,1-b][3]benazepine-3-carboxylic acid (CAS #147083-93-0) were antagonists of the H4 receptor, the ability of the compounds shift the EC50 of the histamine inhibition of forskolin-induced cAMP increases was assessed in SK-N-MC cells transfected with the human histamine H4 receptor. […]

The mark [5] stands for this setting: Bunder Glas bottles, Y Irradiation (gamma, 25 kGy), 50° C., 6 days.
[6] abbreviates: Bunder Glas bottles, Y Irradiation (gamma, 25 kGy), 50° C., 14 days.
[7] abbreviates: Bunder Glas bottles, no sterilization, 50° C., 6 days.
Setting [8] is: Bunder Glas bottles, no sterilization, 50° C., 14 days.
Where [9] appears, read: Rexam bottles, no sterilization, 50° C., 6 days.
Where [10] appears, read: Rexam bottles, no sterilization, 50° C., 14 days.

What is called Ki is a dissociation constant, usually derived from enzyme kinetics or from competition with a known ligand. A lower Ki goes with higher affinity. By pKi is commonly meant −log10 of the Ki, conventionally taken in molar units. A low value points to a high Ki. As usually defined, the pA2 is the negative logarithm of the molar antagonist concentration that doubles the agonist concentration needed for the same response.

Marks after values point to notes of the source that are not given here.

T1 sequence (Q9H3N8 whole entry): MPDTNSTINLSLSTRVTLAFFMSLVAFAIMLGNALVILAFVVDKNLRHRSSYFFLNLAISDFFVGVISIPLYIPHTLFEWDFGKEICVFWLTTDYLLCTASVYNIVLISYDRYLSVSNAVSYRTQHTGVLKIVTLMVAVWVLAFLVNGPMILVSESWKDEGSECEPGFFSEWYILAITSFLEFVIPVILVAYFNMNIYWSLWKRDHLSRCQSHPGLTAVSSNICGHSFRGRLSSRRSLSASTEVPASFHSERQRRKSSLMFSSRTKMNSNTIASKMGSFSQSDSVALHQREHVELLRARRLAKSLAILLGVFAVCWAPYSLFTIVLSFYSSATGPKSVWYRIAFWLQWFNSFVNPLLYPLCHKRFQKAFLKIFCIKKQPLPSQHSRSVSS

For the compound `CN1CCC(=C2c3ccccc3CCn3c(C=O)cnc32)CC1` [Alcaftadine, 6,11-dihydro-11-(1-methyl-4-piperidinylidene)-5H-imidazo[2,1-b][3]benzazepine-3-carboxaldehyde], the Ki in series [1] (average of two runs, 10 nM [3H]histamine, Cheng and Prusoff) came to 2900 nM. In addition, the pKi in series [1] (compared with pA2) was 5.5. In addition, in series [2] (50° C.), the “N-oxide formation in gamma irradiated Bunder Glas bottles compared with glass vials and non-sterilized Rexam and Bunder Glas bottles” value was “significantly increased levels of N-oxide formation”. The Alcaftadine in series [2] (setting [5]) is given as 2.41 mg/mL; in series [2] (setting [6]), 2.39 mg/mL; in series [2] (setting [7]), 2.48 mg/mL; in series [2] (setting [8]), 2.48 mg/mL; in series [2] (Glass Vials, 50° C., 6 days, sample showed significant evaporation), 2.57* mg/mL; in series [2] (Initial Solution), 2.47 mg/mL. Further, the figures for the Alcaftadine in series [2] (setting [9]) and in series [2] (setting [10]) were 2.46 mg/mL and 2.48 mg/mL, respectively. Besides, the Oxide in series [2] (setting [5]) is 0.199%; in series [2] (setting [6]), 0.202%; in series [2] (setting [7]), 0.018%; in series [2] (setting [8]), 0.042%; in series [2] (Glass Vials, 50° C., 6 days), 0.024%; in series [2] (Initial Solution) it was 0.02%. Also, the Oxide is on record as 0.015% in series [2] (setting [9]) and 0.033% in series [2] (setting [10]). For the same compound, the susceptibility to oxidation result in series [2] (primary degradation product N-oxide) is “susceptible to oxidation”. Moreover, the preventing tearing entry in series [3] is “as effective as the positive control and more effective than placebo”. For the same compound, the “preventing itching, redness, chemosis and lid edema” value in series [3] (positive control ketotifen 0.05% and pheniramine 0.5%) was “more effective than the positive control”. The “mode of action at the receptor” value in series [4] (parallel and rightward shifts in the histamine dose response curves) is “competitive antagonist”. In series [4] (x-intercept of the Schild plot), the pA2 turned out to be 5.6.
